This passage reports T/C results from PubChem BioAssay AID192 (DTP/NCI, 2004).

Values joined by “and” are separate entries in the source; they are usually repeats but may differ in a detail not shown here. Identical values can stand only once. Inconclusive results and toxic doses are left out.

In this test the test system is BDF1 mice, B16 melanoma ip, median survival T/C. Put plainly: NCI In Vivo Anticancer Drug Screen. Data for tumor model B16 Melanoma (intraperitoneal) in B6D2F1 (BDF1) mice. The conditions noted are these: endpoint: median survival time, higher = longer survival. The gist of the method:
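Compounds were tested in mice carrying transplantable tumors. Survival or tumor size was recorded, and each value is the treated-group measurement (T) divided by that of the vehicle-treated control group (C).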

The mark [1] stands for this setting: dose: 50.0 mg/kg/injection, schedule: Q01DX009 (ip), vehicle: saline with Tween-80.
The mark [2] stands for this setting: dose: 100.0 mg/kg/injection, schedule: Q01DX009 (ip), vehicle: saline with Tween-80.
Where [3] appears, read: dose: 100.0 mg/kg/injection, schedule: Q01DX009 (ip), vehicle: Klucel (hydroxypropylcellulose) (HPC).
[4] abbreviates: dose: 200.0 mg/kg/injection, schedule: Q01DX009 (ip), vehicle: Klucel (hydroxypropylcellulose) (HPC).
Setting [5] is: dose: 400.0 mg/kg/injection, schedule: Q01DX009 (ip), vehicle: Klucel (hydroxypropylcellulose) (HPC).
Where [6] appears, read: dose: 25.0 mg/kg/injection, schedule: Q01DX009 (ip), vehicle: Klucel (hydroxypropylcellulose) (HPC).
Setting [7] is: dose: 50.0 mg/kg/injection, schedule: Q01DX009 (ip), vehicle: Klucel (hydroxypropylcellulose) (HPC).
Where [8] appears, read: dose: 6.25 mg/kg/injection, schedule: Q01DX009 (ip), vehicle: Klucel (hydroxypropylcellulose) (HPC).
Setting [9] is: dose: 12.5 mg/kg/injection, schedule: Q01DX009 (ip), vehicle: Klucel (hydroxypropylcellulose) (HPC).
Where [10] appears, read: dose: 12.5 mg/kg/injection, schedule: Q01DX009 (ip), vehicle: saline with Tween-80.
Setting [11] is: dose: 25.0 mg/kg/injection, schedule: Q01DX009 (ip), vehicle: saline with Tween-80.
Setting [12] is: dose: 200.0 mg/kg/injection, schedule: Q01DX009 (ip), vehicle: saline with Tween-80.
[13] abbreviates: dose: 6.25 mg/kg/injection, schedule: Q01DX009 (ip), vehicle: saline with Tween-80.
[14] abbreviates: dose: 400.0 mg/kg/injection, schedule: Q01DX009 (ip), vehicle: saline with Tween-80.
Setting [15] is: dose: 25.0 mg/kg/injection, schedule: Q01DX009 (ip), vehicle: saline.
Where [16] appears, read: dose: 50.0 mg/kg/injection, schedule: Q01DX009 (ip), vehicle: saline.

As for `Cc1nc(-c2ccccc2)nc2c1CCO2`, the T/C is 92 % of control (dose: 33.0 mg/kg/injection, schedule: Q01DX009 (ip), vehicle: saline with Tween-80); 93 % of control under setting [1]; 89 % of control (dose: 75.0 mg/kg/injection, schedule: Q01DX009 (ip), vehicle: saline with Tween-80); 122 % of control under setting [2].
In the case of `COc1cc(OC)c(NC(=O)c2ccccc2Cl)cc1Cl`, the T/C is, setting by setting: under setting [3], 97 % of control; under setting [4], 102 % of control; under setting [5], 102 % of control.
As for `CCCCCCCCCC(O)CCCC` (stereo not given), the T/C under setting [6] is 108 % of control, the T/C under setting [7] is 105 % of control and the T/C under setting [3] is 86 % of control.
For the compound `CCOC(=O)C(=O)C(C#N)C(=O)OCC` (stereo not given), the T/C was 88 % of control (dose: 3.12 mg/kg/injection, schedule: Q01DX009 (ip), vehicle: Klucel (hydroxypropylcellulose) (HPC)); 109 % of control under setting [8]; 100 % of control (dose: 8.2 mg/kg/injection, schedule: Q01DX009 (ip), vehicle: Klucel (hydroxypropylcellulose) (HPC)); 96 % of control and 100 % of control under setting [9]; 96 % of control and 105 % of control (dose: 18.0 mg/kg/injection, schedule: Q01DX009 (ip), vehicle: Klucel (hydroxypropylcellulose) (HPC)).
For `COC(=O)C(Cl)(Cl)N=Nc1c(Cl)cc(Cl)c(C)c1Cl`, the T/C is, setting by setting: under setting [10], 112 % of control; under setting [11], 106 % of control; under setting [1], 111 % of control; under setting [2], 99 % of control; under setting [12], 97 % of control.
Regarding `Brc1cc(Br)cc(-c2nnc(-c3cccc4ccccc34)o2)c1`, under setting [4], the T/C was 94 % of control.
Regarding `O=[N+]([O-])c1ccc(/C=C2/c3cc(Cl)ccc3-c3c(Cl)cc(Cl)cc32)cc1`, the T/C is 90 % of control under setting [13] and 88 % of control under setting [11].
Take `CCOC(=O)C1C2OC(=O)C(C(=O)C2CN(CCCl)CCCl)C1C1CC=C(CC2=CCC(C3C4C(=O)OC(C(CN(CCCl)CCCl)C4=O)C3C(=O)OCC)CC2)CC1` (stereo not given): the T/C is 107 % of control under setting [9]; 113 % of control under setting [10]; 118 % of control under setting [6]; 119 % of control under setting [11]; 150 % of control under setting [1]; 153 % of control under setting [3]. Under setting [2], the T/C is 174 % of control.
For `Clc1ccccc1C=Nc1ccc2c(c1)Cc1ccccc1-2`, the T/C is 96 % of control under setting [3], 96 % of control under setting [4] and 87 % of control under setting [5].
Consider `O=C(O)C(/C=C/c1ccccc1)c1ccccc1` (stereo not given), for which the T/C by setting is: under setting [2], 95 % of control; under setting [14], 105 % of control.
Turning to `CCCCOCCC1CCNCC1`, the T/C by setting is: (dose: 12.5 mg/kg/injection, schedule: Q01DX009 (ip), vehicle: saline) 116 % of control; under setting [15], 106 % of control; under setting [16], 110 % of control.
As to `CCC(CC)N=C(N)N`, the T/C was 101 % of control under setting [15]; 98 % of control under setting [16]; 112 % of control (dose: 100.0 mg/kg/injection, schedule: Q01DX009 (ip), vehicle: saline).
Consider `CNC(c1ccncc1)C(NC)c1ccncc1` (stereo not given), for which the T/C runs as follows: (dose: 100.0 mg/kg/injection, schedule: Q04DX003 (ip), vehicle: Klucel (hydroxypropylcellulose) (HPC)) 95 % of control; (dose: 400.0 mg/kg/injection, schedule: Q04DX003 (ip), vehicle: Klucel (hydroxypropylcellulose) (HPC)) 91 % of control.
In the case of `CCCCCCN(CCCCCC)CC(O)c1ccc2c3c(cccc13)CC2` (stereo not given), the T/C is, setting by setting: under setting [7], 105 % of control; under setting [3], 98 % of control; under setting [4], 101 % of control.
As for `CC1(O)C=CC(=O)C=C1`, the T/C runs as follows: (dose: 6.25 mg/kg/injection, schedule: Q01DX009 (ip), vehicle: water) 110 % of control; (dose: 12.5 mg/kg/injection, schedule: Q01DX009 (ip), vehicle: water) 116 % of control; (dose: 25.0 mg/kg/injection, schedule: Q01DX009 (ip), vehicle: water) 120 % of control; (dose: 50.0 mg/kg/injection, schedule: Q01DX009 (ip), vehicle: water) 114 % of control.
For `COc1cc(OC)c(/C=C/c2c3ccccc3cc[n+]2C)c(OC)c1`, the T/C runs as follows: (dose: 0.78 mg/kg/injection, schedule: Q01DX009 (ip), vehicle: saline with Tween-80) 97 % of control; (dose: 1.56 mg/kg/injection, schedule: Q01DX009 (ip), vehicle: saline with Tween-80) 102 % of control.
Turning to `CC1=NCCc2c1cc1c([nH]c3ccccc31)c2C`, the T/C is, setting by setting: under setting [10], 105 % of control; under setting [11], 110 % of control.
In the case of `Clc1ccc(C(c2ccc(Cl)cc2)C(Cl)(Cl)Cl)cc1`, the T/C is 101 % of control (dose: 16.0 mg/kg/injection, schedule: Q01DX009 (ip), vehicle: Klucel (hydroxypropylcellulose) (HPC)) and 92 % of control (dose: 32.0 mg/kg/injection, schedule: Q01DX009 (ip), vehicle: Klucel (hydroxypropylcellulose) (HPC)).
As to `CCc1c2cc3c(cc2cc2c4cc5c(cc4cc[n+]12)OCO5)OCO3` (tested in a mixture with another compound), the T/C reads like this: (dose: 1.56 mg/kg/injection, schedule: Q01DX009 (ip), vehicle: Klucel (hydroxypropylcellulose) (HPC)) 103 % of control; (dose: 3.13 mg/kg/injection, schedule: Q01DX009 (ip), vehicle: Klucel (hydroxypropylcellulose) (HPC)) 106 % of control; under setting [8], 106 % of control.
In the case of `NC(=S)N/N=C/c1ccc(OC(=O)COc2ccccc2)cn1`, the T/C was 101 % of control and 110 % of control under setting [10]; 94 % of control and 104 % of control and 119 % of control under setting [11]; 103 % of control and 106 % of control and 117 % of control under setting [1]; 105 % of control under setting [2]; 105 % of control under setting [12]; 108 % of control under setting [14].
With `CC1(C)N=C(N)N=C(N)N1c1cc(Cl)c(Cl)cc1Cl`, the T/C under setting [9] is 94 % of control and the T/C under setting [6] was 99 % of control.
Turning to `N#CCc1ccc(Cl)c(Cl)c1`, the T/C runs as follows: under setting [13], 90 % of control; under setting [10], 88 % of control; under setting [11], 95 % of control.
